Experimental data from a melting point compilation (Tetko et al.; mined from patent text by program, amines drawn as free bases though some values may be those of a salt).

| melting point | SMILES |
| --- | --- |
| 293 °C | N#Cc1c(N2CCN(C(=O)c3cccs3)CC2)c2sccc2[nH]c1=O |
| 205 to 207 °C | CC(C)c1cc(OC2CN(C(c3ccccc3)c3ccccc3)C2)cc2c1C(=O)N(COC(=O)c1c(Cl)cccc1Cl)S2(=O)=O |
| 156 to 157 °C | COC(=O)CCCOc1cc([N+](=O)[O-])c(C(C)NC(=O)C(F)(F)F)cc1OC (stereo not given) |
| 203 to 205 °C | Cc1ccc2c(n1)NC(C)C(=O)N2 (racemic) |
| 207 to 210 °C | CC(C)(c1ccc(N)c([N+](=O)[O-])c1)c1ccc(N)c([N+](=O)[O-])c1 |
| 167 to 169 °C | COC(=O)c1ccc(NC(=O)C=C(C)c2cc(C(C)C)c(C(C)C)o2)cc1 |
| 128 to 130 °C | CC#CCN=C(NC#N)NCCSCc1[nH]cnc1C |
| 167 °C | CCOC(=O)C=Cc1ccc(C=Cc2ccc(Br)cc2)cc1 |
| 153 to 154 °C | O=C(Nc1ccc(Br)cn1)C1=C(O)c2ccccc2N(c2ccccc2)C1 |
| 205 to 208 °C | O=C(O)CCSC(c1ccccc1)(c1ccccc1)c1ccccc1 |
| 178 to 180 °C | C=CCc1c(C)ccc(N2C(=O)c3ccccc3C2=O)c1O |
| 56.5 to 59.5 °C | CCCCCCCCCCCCCCCCCCCCCCOc1ccc(C(=O)OCC)cc1 |
| 189 °C | COc1nc(C)nc(NC(=O)NS(=O)(=O)c2c(C)csc2C)n1 |
| 186 °C | O=S(=O)(NCc1ccccc1)c1cc(F)c2cccnc2c1O |
| 89 to 90 °C | [N-]=[N+]=C1c2ccccc2-c2ccc(F)cc21 |
| 117 to 118 °C | NCc1ccccc1NC1CCN(Cc2ccccc2)CC1 |
| 171 to 173 °C | CC(C)CCc1c(-c2ccc(S(N)(=O)=O)cc2)cnn(-c2ccc(F)c(F)c2)c1=O |
| 186 °C | CC(=O)N[C@@H](Cc1cscn1)C(=O)O |
| 39 to 40 °C | COCOc1ccc(C=O)cc1OC |
| 164 to 166 °C | COC(=O)CC(NCCN(C)C)C(=O)O (stereo not given) |
| 115 to 116 °C | CCOC(=O)C1=C(CCl)NC(C)=C(C(=O)OC)C1c1cccc(C(F)(F)F)c1 (stereo not given) |
| 182 to 185 °C | CS(=O)(=O)c1ccc(-c2cnn(-c3ccc(F)c(F)c3)c(=O)c2-c2cccc(F)c2)cc1 |
| 150 to 152 °C | CCOC(=O)c1cnc2onc(C)c2c1O |
| 127 to 130 °C | CCc1c(-c2ccc(OCc3ccccc3)cc2)c2c(COC)cc3c(OCc4ccccc4)ccc1n32 |
| 48 to 50 °C | Clc1ccc2c(c1)N(CC#CCN1CCCC1)c1ccccc1S2 |
| 45 °C | C1=NCCN1c1ccccc1 |

| melting point | SMILES |
| --- | --- |
| 141 to 142 °C | Cc1[nH]cnc1CSCCN=C(N)N |
| 155 to 157 °C | COc1ccc2[nH]c(/C=C/C(=O)OCc3ccccc3)cc2c1 |
| 242 to 245 °C | CCCCc1nc(N)cc(=O)[nH]1 |
| 205 to 207 °C | Cc1cc(C)c2c(n1)N(C(=O)Cl)c1ccccc1N(C)C2=O |
| 222 to 224 °C | CC(C)(C)c1ncc(C(C(=O)O)C(C)(C)C)cn1 (single isomer, unassigned; (+)) |
| 219 to 220 °C | O=C1COc2ccc3ccccc3c2N1 |
| 78 to 82 °C | Cc1ccc(C(O)c2cc3ccncc3[nH]2)cc1 (stereo not given) |
| 69 to 71 °C | COC(=O)C1CC1c1ccc(O)cc1 (stereo not given) |
| 73.6 °C | Cc1sccc1C1=C(c2ccsc2C)C(F)(F)C(F)(F)C1(F)F |
| 170 to 172 °C | COc1ccc2nc(-c3cc(F)c(OC)c(F)c3)cc(Br)c2c1 |
| 202 to 204 °C | O=C(NCCc1ccccn1)Nc1cc(N2CC(c3ccccc3)CC2=O)ccn1 (stereo not given) |
| 150 to 151 °C | CCCCOC(=O)c1cc2cccc(O)c2[nH]1 |
| 232 to 233 °C | O=c1[nH]c2cccc(C(F)(F)F)c2c(=O)o1 |
| 63 to 65 °C | COC(=O)C(C)Oc1ccc(OCc2ccccc2)cc1 (stereo not given) |
| 214 to 216 °C | Nc1c2c(nc3ccccc13)CCSC2 |
| 166 °C | Cc1ccc(S(=O)(=O)OCC2Cn3c(nc4ccccc43)-c3ccccc3O2)cc1 (stereo not given) |
| 110 to 113 °C | COC=C(C(=O)OC)c1ccccc1[C@@H]1O[C@H]1c1ccccc1 (relative stereo) |
| 78 to 80 °C | CCOC(=O)C1=C(C)NC(CSC(=O)c2ccc(N)cc2)=C(C(=O)OCC)C1c1cccc([N+](=O)[O-])c1 (stereo not given) |
| 93 to 94 °C | CCN(CC)C(=O)COc1ccccc1C(O)(CC)c1cccc(Cl)c1 (stereo not given) |
| 358 °C | O=c1[nH]c2cc(Cl)ccc2c(O)c1-c1cccc(Br)c1 |
| 141 to 144 °C | CCN1CCC(=O)N(c2c(C)cccc2Cl)C1=S |
| 166 to 168 °C | N#Cc1c(Cc2ccccc2)nn(C2CCCC2)c1NC(=O)Cc1ccccc1 |
| 93 to 94 °C | CC(=O)COc1cc(C)c(Br)c(C)c1Cc1ccc(C(C)C)cc1 |
| > 300 °C | Cc1cc2c(c3c1NC(=O)CC3)OC(CN)C2 (stereo not given) |
| 230 to 232 °C | Cc1cc(C)c(C2CN(c3cc4[nH]cc(C(=O)O)c(=O)c4cc3F)CCN2)o1 (stereo not given) |
| 133 to 135 °C | O=C(NC(Cc1c[nH]c2ccccc12)C(=O)CCc1cc(C(F)(F)F)cc(C(F)(F)F)c1)OCCc1ccccn1 (stereo not given) |

| melting point | SMILES |
| --- | --- |
| 184 to 186 °C | O=C(CS)Nc1ccc(C(=O)NCCO)cc1 |
| 204 to 205 °C | CC(=O)N1c2ccccc2CC1C(N)=NO (stereo not given) |
| 161 to 165 °C | Cc1cc(C(C)(C)C)c(O)c(C)c1CC(=O)O |
| 160 to 161 °C | CC(C)(C)OC(=O)N1CCC[C@@H](OC(=O)Nc2ccc(Cl)cc2)C1 |
| 264 to 267 °C | O=C(Nc1cccc(S(=O)(=O)c2ccccn2)c1)C(O)(C(F)(F)F)C(F)(F)F |
| 108 to 110 °C | CC1(c2cccc(F)c2C(=O)NCCCl)CCC1 |
| 55 °C | CCCCc1oc2ccc([N+](=O)[O-])cc2c1C(=O)c1ccc(OCCCCCBr)cc1 |
| 65 to 66 °C | CCSC(=S)SC1NC(=O)C1C(C)C (stereo not given) |
| 88 to 90 °C | CS(=O)(=O)c1ccc(-c2cc(CO)cn2-c2ccc(F)cc2)cc1 |
| 200 to 201 °C | COC(=O)c1ccc2ncc(C3CCN(C)CC3)c-2[nH]1 |
| 151 to 153 °C | CSc1ccc2c(c1)Cc1ccc(CO)cc1O2 |
| > 250 °C | Cc1cc(-c2ccc(C(F)(F)F)cc2)cc(-c2ccnc(-c3ccc(S(N)(=O)=O)s3)c2)n1 |
| 136 to 138 °C | COC(=O)c1nc(-c2ccccc2)c(-c2ccc(=O)n(C(C)C)n2)cc1C#N |
| 205 to 207 °C | CC12CCC3c4cc(N)c(OCc5ccccc5)cc4CCC3C1CCC2=O (stereo not given) |
| 187 to 189 °C | Cc1cccc(NC(c2cccc(O)c2)c2ccc3cccnc3c2O)n1 (stereo not given) |
| 199 °C | Cn1cnc([N+](=O)[O-])c1NCCN1CCC(Nc2nc3cccnc3n2Cc2ccc(F)cc2)CC1 |
| 192 °C | O=C(O)Cc1cccc2c(-c3ccccc3)nccc12 |
| 198 °C | CSCCC(NCc1ccccc1N)C(=O)O (stereo not given) |
| 63 to 65 °C | COC(=O)C=Cc1csc2ccccc12 |
| 222 to 223 °C | O=C(Nc1cccc2ccccc12)NC(Cc1ccc(C(F)(F)F)cc1)C(O)c1ccc(F)cc1 (stereo not given) |
| 158 to 160 °C | NC(=O)N(O)CC#Cc1cccc(Oc2ccccn2)c1 |
| 113 to 114 °C | N#Cc1ccc2oc(CO)cc2c1 |
| 180 to 184 °C | CCCn1c(=O)c2c(N)n(C(=O)OC)nc2c2ccccc21 |
| 162 °C | O=C(NN=c1[nH]nc(Cl)c2ccccc12)c1ccccc1 |
| 137 to 138 °C | CCOC(=O)N1CCN(C2=Nc3ccccc3Cc3ccccc32)CC1 |
| 112 to 113 °C | O=C(NCO)c1cccc(Oc2ccccc2)c1 |

| melting point | SMILES |
| --- | --- |
| 79 to 82 °C | O=C1c2ccccc2C(=O)N1Cc1ncc(/C=C/C(c2cc(Cl)c(Cl)c(Cl)c2)C(F)(F)F)cc1Cl (stereo not given) |
| 67 to 72 °C | O=[N+]([O-])c1c(O)c(Cl)cc(F)c1-c1ncc(C(F)(F)F)cc1Cl |
| 224 to 225 °C | CC(=O)Nc1cnc(-c2ccccc2)nc1N |
| 141 to 143 °C | Cc1c(SCCCn2c([N+](=O)[O-])cnc2C)ccnc1CSc1ncccn1 |
| 142 to 144 °C | COC(=O)c1c(C)nc2c(c(-c3ccccc3)nn2C)c1-c1ccc(F)cc1 |
| 207 to 210 °C | O=C1COc2cc(NCC(=O)N3CCC(Oc4ccc(Cl)cc4)CC3)ccc2N1 |
| 186 to 187 °C | CCOC(=O)c1sc(Oc2ccc(NC(=O)OC(C)(C)C)cc2)c2c1CCc1cnn(C)c1-2 |
| 199 to 202 °C | COc1ccc(C2(C#N)CCC(=O)CC2)c2c1oc1ccccc12 |
| 183 to 185 °C | Clc1ccc(Cn2cnc3c(-c4ccco4)ncnc32)cc1Cl |
| 150 to 151 °C | COC(=O)C1=C(C)NC(C)=C(C(=O)OC)C1CCCCC(=O)O |
| 41 to 44 °C | Cn1cc(-c2ccccc2[N+](=O)[O-])cn1 |
| 181 to 182 °C | CC1(C)OC(=O)Nc2ccc(-c3ccccc3Cl)cc21 |
| 250 °C | O=C(Nc1ccc2ccc(Cl)nc2n1)C1CC1 |
| 133 to 136 °C | O=C1Cc2cccc(-c3ccccc3)c2C1 |
| 101 to 102 °C | Cc1cc(C#N)cnc1C(=O)Nc1ccc(F)c([C@]2(C)CO[C@@](C)(C(F)(F)F)C(N)=N2)c1 |
| 201 to 206 °C | O=C(CCc1ccccc1)N[C@H]1CC[C@H](c2ccc(O)cc2)CC1 |
| 127 to 129 °C | CC(c1ccc(Cl)c(Cl)c1)n1[nH]c(N)cc1=O (stereo not given) |
| 195 to 196 °C | CCOC(=O)CCCn1c(Nc2cnc(N3CCCC3)cc2C)nc2c(Cl)ccc(C(CC)CC)c21 |
| 72.3 to 72.8 °C | CCOC(=O)CC(c1cccnc1)N1C(=O)c2ccccc2C1=O (stereo not given) |
| 236 to 238 °C | O=C(O)COC1=C(Cc2ccc3c(Cl)cccc3c2)C(=O)CCC1 |
| 73 to 76 °C | C=CCn1c(CSC#N)nc2ccccc2c1=O |
| 170 to 172 °C | O=C1c2cccc3c(N4CCCC4)c(Br)cc(c23)C(=O)N1O |
| 203 to 205 °C | COc1ccc(-c2c(-c3ccccc3)nn3ccccc23)nn1 |

| SMILES | melting point |
| --- | --- |
| C[C@H]1C(=O)C[C@@H]2C[C@H]1OO[C@]2(C)/C=C/C(=O)c1ccc(Cl)cc1 | 127 °C |
| O=C(O)CSC(c1ccccc1)c1ccccc1 | 126 to 129 °C |
| Cc1ccc(Cc2cnc[nH]2)cc1NS(C)(=O)=O | 170 °C |
| CN(C)c1cccc(NC(=O)NC2C(=O)N(CC34CC5CC(CC(C5)C3)C4)c3ccccc3N(c3ccccc3)C2=O)c1 (stereo not given) | 263 to 265 °C |
